{"source": "paper PMC9189929", "about": "“Synthesis, Screening and Characterization of Novel Potent Arp2/3 Inhibitory Compounds Analogous to CK-666” (Frontiers in Pharmacology, 2022)", "key": {"MCF10A cells": {"tested_on": "MCF10A cells", "test": "EdU incorporation / cell cycle progression screen in MCF10A cells", "assay_type": "cell-based, human", "settings": "for pIC50: Homo sapiens, MCF-10A, 18 h treatment, rough values from Figure 1 graphs, read-out: IC50 (concentration required for 50% decrease of EdU-positive cells); for Outcome of EdU incorporation screen: 0.025 to 100 μM", "protocol": "For cell cycle progression using EdU, MCF10A cells were seeded in 384-well plates at a density of 800 cells per well. […] EdU from kit C10337 (ThermoFischer Scientific, Waltham, MA, United States) was then added to the cells at 10 μM and incubated for 2.5 h. Cells were fixed in 4% paraformaldehyde for 30 min at room temperature. Click-iT reaction was performed for 1 h at room temperature, protected from light, with 5 µM Alexa Fluor 488 azide in (100 mM Tris, 1 mM CuSO4, 50 mM Ascorbic Acid, pH 8.5). Nuclei were counterstained with Hoechst 33,342 (Thermo Fisher Scientific). Imaging and analysis were performed using the ImageXpress Micro XL High-Content Screening System (Molecular Devices LLC, San Jose, CA, United States). IC50 values were determined by sigmoidal curve fitting using GraphPad Prism six software."}, "B16-F1 cells [1]": {"tested_on": "B16-F1 cells", "test": "Lamellipodium formation in B16-F1 cells (cortactin immunofluorescence)", "assay_type": "cell-based, mouse", "protocol": "Lyophilized compounds were resuspended with fresh DMSO from sealed vials (cell biology grade). Compounds, stored at +4°C, were used within a week. B16-F1 cells were seeded onto glass coverslips coated for 1 h with 25 μg/ml laminin (Sigma) in (50 mM Tris, 150 mM NaCl, pH 7.4). […] Cell were then processed for immunofluorescence.\nCells were fixed in 3.2% PFA on PBS, then quenched with 50 mM NH4Cl and permeabilised with 0.5% Triton X-100. After blocking in 2% BSA cells were incubated with antibodies (1–5 μg/ml for the primary, 5 μg/ml for the secondary). Total actin in cells was visualized by phalloidin staining. Nuclei were stained with 0.3 μg/ml DAPI (Roche). Coverslips were mounted in Dako Fluorescence Mounting Medium (Agilent). For immunofluorescence, ARPC2 rabbit polyclonal antibody (Millipore, 07–227), Cortactin mouse monoclonal 4F11 (Millipore, 05–180) were used. Secondary goat anti-mouse and anti-rabbit antibodies conjugated with Alexa Fluor 555 and 647 respectively were from Life Technologies. Phalloidin conjugated with Alexa Fluor 488 was from Tebu-bio.\n(§1) Image analysis was performed in ImageJ or FIJI software. To measure wound healing, boundaries of the wound were drawn manually at different time points, then wound size was measured."}, "B16-F1 cells [2]": {"tested_on": "B16-F1 cells", "test": "Wound healing (cell migration) of B16-F1 cells", "assay_type": "cell-based, mouse", "protocol": "For the wound healing, B16-F1 cells were seeded onto 8-well Ibidi dishes coated with laminin, and grown to confluence. Wounds in the cell monolayer were obtained by scratching the monolayer with a pipet tip. Detached cells were immediately washed away and new medium containing the various compounds was added. Cells were then used for videomicroscopy.\nVideomicroscopy was performed on an inverted Axio Observer microscope (Zeiss) equipped with a Pecon Zeiss incubator XL multi S1 RED LS (Heating Unit XL S, Temp module, CO2 module, Heating Insert PS and CO2 cover), Definite focus module and a Hamamatsu camera C10600 Orca-R2. Phase contrast images were taken every 30 min for 24 h using the 10X/0.25 Plan-Apochromat air objective. For immunofluorescence, slides were observed and imaged with the 63X/1.4 Plan-Apochromat oil objective. Fluorophores were excited with the HBO 100 W lamp (Osram) installed in the HXP 120 Metal halide fluorescence light source (Zeiss).\nas §1"}, "Arp2/3 [3]": {"biological_target": "T1, Arp2/3 (Bos taurus, UniProt A7MB62+P61157)", "T1 construct": "purchased Cytoskeleton, Inc", "test": "Pyrene-actin polymerization assay", "assay_type": "biochemical, bovine", "settings": "20 nM Arp2/3, 250 nM N-WASP VCA; for pIC50: 1.5 μM actin (10% pyrenyl-labeled), read-out: IC50 of Arp2/3-mediated actin polymerization; for Arp2/3 inhibition reached at saturation: 1.5 μM actin", "protocol": "Actin was purified from rabbit muscle and was pyrenyl-labeled ([Carlier et al., 1984]; [Malm, 1984]). Arp2/3 was from Cytoskeleton, Inc. VCA domain of N-WASP was purified as previously described ([Clainche et al., 2003]). Pyrene-actin polymerization assays were performed as previously ([Romero et al., 2007]). Briefly, CaATP-actin was converted into MgATP-actin in (5 mM Tris, 0.2 mM ATP, 0.1 mM CaCl2, 1 mM DTT, 1 mM MgCl2, and 0.2 mM EGTA, pH 7.6) and kept on ice for no more than 1 h. Actin polymerization was monitored in (5 mM Tris, 50 mM KCl, 0.2 mM ATP, 0.1 mM CaCl2, 1 mM DTT, 1 mM MgCl2, 0.2 mM EGTA, pH 7.6) in the presence of 2% DMSO alone or 2% DMSO containing the appropriated compound concentration. The increase in fluorescence of 10% pyrenyl-labeled actin was monitored using a Safas spectrofluorimeter (λexc = 366 nm, λem = 407 nm). The maximum rate of actin polymerization was derived from the maximum slope of the polymerization curve multiplied by [total polymer]/(RFUmax—RFUmin) [total polymer] is the total actin minus the critical concentration (0.1 μM) and RFU, Relative Fluorescence Unit. The maximum elongation rates of actin polymerization were plotted as a function of the concentration of the different compounds. For CK-666, 59, 69 and 71, curves were fitted with the following equation to determine the IC50. Mrate= Rmax−Rmax−Rmin/1+IC50/(Compound Conc.) where Mrate is the measured maximum rate of actin polymerization at a given compound concentration, Rmax is the maximum rate of actin polymerization with no compound, and Rmin is the maximum rate of actin polymerization at saturating concentration of compound.\nThe curve of compound 15 was fitted with a linear decay. The IC50 was determined at half inhibition of actin polymerization."}, "sea urchin embryos [4]": {"tested_on": "sea urchin embryos", "test": "Sea urchin embryo development assay", "assay_type": "in vivo, Paracentrotus lividus", "protocol": "The procedure was described in detail in [Semenova et al., 2018]. Briefly, adult sea urchins, Paracentrotus lividus L (Echinidae), were collected from the Mediterranean Sea on the Cyprus coast and kept in an aerated seawater tank. Gametes were obtained by intracoelomic injection of 0.5 M KCl. Eggs were washed with filtered seawater and fertilized by adding drops of diluted sperm. Embryos were cultured at room temperature under gentle agitation with a motor-driven plastic paddle (60 rpm) in filtered seawater. […] For treatment with test compounds, 5 ml aliquots of embryo suspension were transferred to six-well plates and incubated at a concentration of 1,000–2,000 embryos/ml. For images, sedimented embryos were concentrated in the center of the well by gentle rotation of the culture plate, and 200 μl aliquots containing several hundred embryos were used to take pictures (up to 20 images from different fields). Embryos selected for Figure 4 were representative of the population.\n(§2) Stock solutions of compounds were prepared in DMSO at 50–250 mM concentration followed by a 10-fold dilution with 96% EtOH. This procedure enhanced the solubility of the test compounds in the salty seawater. Maximal tolerated concentrations of DMSO and EtOH in the assay were determined to be 0.05 and 1%, respectively. Higher concentrations of either DMSO (>0.1%) or EtOH (>1%) caused nonspecific alterations and retardation of the sea urchin embryo development independent of the treatment stage. Maximum solubility of compounds 15, 59, 69, and 71 was about 5–20 mM in seawater, since visible crystals formed at higher concentrations.\nThe effects were assessed after exposure of fertilized eggs (8–15 min post fertilization, 45–55 min before the first mitotic cycle completion) to 2-fold decreasing concentrations of the compound. Embryonic development was monitored until the beginning of active feeding at four-arm pluteus stage (33–36 h postfertilization). Developmental abnormalities were estimated quantitatively as minimal effective concentration (MEC), resulting in inhibition of archenteron elongation or skeletal spicule formation."}, "Arp2/3 [5]": {"tested_on": "Arp2/3", "settings": "introduction statement, no reference given; read-out: IC50 of inhibition of Arp2/3 activation; cited from earlier work"}, "sea urchin embryos [6]": {"tested_on": "sea urchin embryos", "set-up": "method as in Sepúlveda-ramírez et al., 2018", "settings": "100 μM; ref Sepúlveda-ramírez et al., 2018; cited from earlier work"}, "fish keratocytes": {"tested_on": "fish keratocytes", "set-up": "method as in Nolen et al., 2009", "settings": "ref Nolen et al., 2009; cited from earlier work"}, "B16-F1 cells [7]": {"tested_on": "B16-F1 cells", "test": "Cell viability (MTS) of B16-F1 cells", "assay_type": "cell-based, mouse", "settings": "100 μM, 4 h", "protocol": "Cell viability was assessed using the CellTiter 96® AQueous One Solution Cell Proliferation kit (Promega) on a Multiscan Spectrum spectrophotometer (Thermo LifeSciences), with absorbance read at 490 nm."}, "[8]": {"test": "Maximum solubility in seawater", "assay_type": "physicochemical", "settings": "saline or isotonic, kinetic from dmso stock, visible crystals formed at higher concentrations", "protocol": "as §2"}, "[9]": {"settings": "observed up to four-arm mid-pluteus stage"}, "[10]": {"settings": "treated at zygote stage, monitored to four-arm pluteus"}}, "note": "pIC50: −log10 of the molar value."}
{"smiles": "Cc1[nH]c2ccccc2c1CCNC(=O)c1ccccc1F", "note": "[CK-666, 2-Fluoro-N-[2-(2-methyl-1H-indol-3-yl)ethyl]benzamide]", "values": [{"measurement": "pIC50", "setting": "MCF10A cells", "result": 4.25}, {"measurement": "Inhibition of lamellipodium formation", "setting": "B16-F1 cells [1]; 100 μM, 1 h", "result": "blocked lamellipodium formation almost completely"}, {"measurement": "Inhibition of wound healing", "setting": "B16-F1 cells [2]; 100 µM", "result": "inhibits wound healing"}, {"measurement": "pIC50", "setting": "Arp2/3 [3]", "result": 4.64}, {"measurement": "Arp2/3 inhibition reached at saturation", "setting": "Arp2/3 [3]", "result": 78, "unit": "%"}, {"measurement": "Developmental phenotype", "setting": "sea urchin embryos [4]; 100 μM, 22°C", "result": "Defective gastrulation"}, {"measurement": "Effect on archenteron elongation", "setting": "sea urchin embryos [4]; [9]", "result": "inhibited elongation of the archenteron at approximately half-size"}, {"measurement": "Effect on primary mesenchyme cell (PMC) migration", "setting": "sea urchin embryos [4]; [9]", "result": "altered PMC migration resulting in the lack of ventrolateral clusters and spicules"}, {"measurement": "Minimum effective concentration, Inhibition of Archenteron elongation", "setting": "sea urchin embryos [4]; [10]", "result": 50, "unit": "µM"}, {"measurement": "Minimum effective concentration, Inhibition of Spicule formation", "setting": "sea urchin embryos [4]; [10]", "result": 25, "unit": "µM"}, {"measurement": "Effect on cleavage and embryo spinning (antimitotic microtubule destabilizing effects)", "setting": "sea urchin embryos [4]; up to 20–50 μM", "result": "did not affect cleavage and did not induce embryo spinning"}, {"measurement": "pIC50", "setting": "Arp2/3 [5]", "result": "~4.30"}, {"measurement": "Effect on PMC migration and spiculogenesis", "setting": "sea urchin embryos [6]", "result": "alters proper migration of PMC and formation of ventrolateral clusters with ensuing inhibition of spiculogenesis"}, {"measurement": "Inhibition of migration of fish keratocytes", "setting": "fish keratocytes", "result": "unable to inhibit the migration of fish keratocytes"}]}
{"smiles": "Cc1[nH]c2ccc(OC(F)(F)F)cc2c1CCNC(=O)c1ccc(S(=O)(=O)N(CCCl)CCCl)cc1", "note": "[Compound 52, 4-{[Bis(2-chloroethyl)amino]sulfonyl}-N-{2-[2-methyl-5-(trifluoromethoxy)-1H-indol-3-yl]ethyl}benzamide]", "values": [{"measurement": "Outcome of EdU incorporation screen", "setting": "MCF10A cells", "result": "scored positive"}, {"measurement": "pIC50", "setting": "MCF10A cells", "result": 5.50}, {"measurement": "Toxicity to B16-F1 cells (viability, MTS)", "setting": "B16-F1 cells [7]", "result": "reduced the cell population by half or more"}]}
{"smiles": "Cc1[nH]c2ccc(F)cc2c1CCNC(=O)c1cc(S(=O)(=O)N(C)C)c(Cl)cc1Cl", "note": "[Compound 64, 2,4-Dichloro-5-[(dimethylamino)sulfonyl]-N-[2-(5-fluoro-2-methyl-1H-indol-3-yl)ethyl]benzamide]", "values": [{"measurement": "Outcome of EdU incorporation screen", "setting": "MCF10A cells", "result": "scored positive"}, {"measurement": "pIC50", "setting": "MCF10A cells", "result": 5.18}, {"measurement": "Toxicity to B16-F1 cells (viability, MTS)", "setting": "B16-F1 cells [7]", "result": "reduced the cell population by half or more"}]}
{"smiles": "Cc1[nH]c2c(C(F)(F)F)cccc2c1CCNC(=O)c1cc(S(=O)(=O)NC2CC2)c(Cl)cc1Cl", "note": "[Compound 71, 2,4-Dichloro-5-[(cyclopropylamino)sulfonyl]-N-{2-[2-methyl-7-(trifluoromethyl)-1H-indol-3-yl]ethyl}benzamide]", "values": [{"measurement": "Outcome of EdU incorporation screen", "setting": "MCF10A cells", "result": "scored positive"}, {"measurement": "pIC50", "setting": "MCF10A cells", "result": 5.45}, {"measurement": "Dose-dependent inhibition of lamellipodium formation, potency relative to CK-666", "setting": "B16-F1 cells [1]; dose-dependent assay (Figure 2D)", "result": "significantly more potent than CK-666"}, {"measurement": "Cell rounding and detachment in wound healing assay", "setting": "B16-F1 cells [2]; 25 µM", "result": "still induced cell rounding"}, {"measurement": "Cell rounding and detachment in wound healing assay", "setting": "B16-F1 cells [2]; 100 µM", "result": "induced cell rounding followed by detachment from the substrate"}, {"measurement": "Inhibition of cell migration (wound healing) compared with 100 µM CK-666", "setting": "B16-F1 cells [2]; compound at 25 µM", "result": "inhibited cell migration even more effectively"}, {"measurement": "pIC50", "setting": "Arp2/3 [3]", "result": 3.27}, {"measurement": "Arp2/3 inhibition reached at saturation", "setting": "Arp2/3 [3]", "result": "saturation was not reached"}, {"measurement": "Developmental abnormality", "setting": "sea urchin embryos [4]; 5 μM", "result": "suppressed plutei growth"}, {"measurement": "Developmental abnormality", "setting": "sea urchin embryos [4]; 20 μM", "result": "defective gastrulation was observed"}, {"measurement": "Minimum effective concentration, Systemic Toxicity", "setting": "sea urchin embryos [4]; [10]", "result": 5, "unit": "µM"}, {"measurement": "solubility", "setting": "[8]", "result": "5 to 20", "unit": "µM"}]}
